This note sets out measurements from patent publication US8486996B2, “Aroylfuranes and aroylthiophenes” (Basilea Pharmaceutica AG, priority 2006, dated 2013).

pEC50, pIC50: −log10 of the molar value. Where two headings read alike, the source gives them in different places.

As usually defined, the melting point is the temperature of the solid-liquid transition.

One series has as its system H460. Kind of series: Colony Forming Units (read-out 6 days), H460. Type of series: cell-based, human. Conditions: Homo sapiens, NCI-H460, 144 h, colonies containing more than 30 cells, read-out: Colony Forming Units, score based on IC50, H460. The gist of the method: (§1)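 Cells seeded at 100-150 per well and left to attach for 48 h before compound addition (0.001 μM-3 μM; DMSO controls). Incubated 5-7 days under culture conditions; colonies of more than 30 cells counted by microscope.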

A short description of series [1]: Hoechst 33342 nuclear staining (48 h read-out). Type of series: cell-based. The gist of the method: (§2)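 Adherent cells pre-spread 24 h before dosing, suspension cells dosed at seeding; compounds at 0.001 μM-10 μM final, 48 h at culture conditions. Hoechst 33342 (2-5 μg/ml) added for 30 min, then fluorescence microscopy scoring of apoptotic nuclear fraction and apoptosis-specific morphology, reported as scores A-D.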

Series [2] concerns tumor cells. Kind of series: Hoechst 33342 nuclear staining (48 h read-out). It is filed as cell-based. A digest of the protocol: as §2
Series [3] in a line: MTS proliferation assay (72 h read-out). It is filed as cell-based. Conditions: Homo sapiens, MRC5 cells. The gist of the method: (§3)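 Viability was read by MTS absorbance at 492 nm after 3 h with reagent. Before that, cells plated a day earlier at 1.5×10^3–10^4 per well had been incubated with test compound at final concentrations of 0.001–10 μM for 72 h; activity is given as category scores A–D.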
For orientation: Formazan colour is commonly taken as a measure of viable cells.

The subject of series [4] is tumor cells. Kind of series: MTS proliferation assay (72 h read-out). Type of series: cell-based. A digest of the protocol:
as §3

A short description of series [5]: Mitochondrial membrane potential, JC-1 (read-out 48 h). Conditions: PBL, JC-1, 48 h. Type of series: cell-based. A digest of the protocol:
(§4)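 Tumor cells were treated with test compounds (adherent cells after 24 h of attachment, suspension cells immediately), medium holding up to 5% DMSO. After 48 h, JC-1 (2-5 μg/ml in added medium) was applied for 30 min. Fluorescence microscopy (FITC/TRITC filters) scored the fraction of cells with dissipated mitochondrial membrane potential as categories A-D.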

The subject of series [6] is tumor cells. Described as above. Type of series: cell-based. Conditions: JC-1, 48 h. The gist of the method:
as §4

A further series relates to HeLa. The series is described as follows: Colony Forming Units (read-out 6 days), HeLa. Conditions: Homo sapiens, 144 h, colonies containing more than 30 cells, read-out: Colony Forming Units, score based on IC50, HeLa. Type of series: cell-based, human. The gist of the method: as §1
[7] abbreviates: Homo sapiens, MRC5 cells, read-out: Hoechst 33342 nuclear staining EC50, MRC5.
The mark [8] stands for this setting: PBL, read-out: Hoechst 33342 nuclear staining EC50, PBL.
[9] abbreviates: Homo sapiens, HeLa cells, read-out: Hoechst 33342 nuclear staining EC50, HeLa.
[10] abbreviates: Homo sapiens, Jurkat cells, read-out: Hoechst 33342 nuclear staining EC50, Jurkat.
Where [11] appears, read: Jily cells, read-out: Hoechst 33342 nuclear staining EC50, Jily.
Where [12] appears, read: Homo sapiens, HT-1080, HT1080 cells, read-out: MTS proliferation assay IC50, HT1080.
Setting [13] is: Homo sapiens, HeLa cells, read-out: MTS proliferation assay IC50, HeLa.
Where [14] appears, read: Homo sapiens, Jurkat cells, read-out: MTS proliferation assay IC50, Jurkat.
Setting [15] is: Jily cells, read-out: MTS proliferation assay IC50, Jily.
The mark [16] stands for this setting: Homo sapiens, HeLa cells, read-out: Mitochondrial membrane potential (read-out 48 h) HeLa.
Where [17] appears, read: Homo sapiens, Jurkat cells, read-out: Mitochondrial membrane potential (read-out 48 h) Jurkat.
Where [18] appears, read: Homo sapiens, MCF7 cells, read-out: Mitochondrial membrane potential (read-out 48 h) MCF7.
Where [19] appears, read: Jily cells, read-out: Mitochondrial membrane potential (read-out 48 h) Jily.

As to `CCOc1ccc(F)cc1C(=O)c1oc2nc(C)ccc2c1N` [Example 29], the melting point lay within 152 to 156 °C. The pIC50 with H460 is 7.00 to 8.00. For the same compound, the pEC50 in series [1] (setting [7]) was 6.00 to 7.00. Further, in series [1] (setting [8]), the pEC50 is below 6.00. Besides, in the series on tumor cells [2] (setting [9]), the pEC50 was 7.00 to 8.00. In the series on tumor cells [2] (setting [10]), the pEC50 was 7.00 to 8.00. Moreover, the pEC50 in the series on tumor cells [2] (setting [11]) is 7.00 to 8.00. Besides, the pIC50 in [3] is 7.00 to 8.00. Also, in the series with tumor cells [4] (setting [12]), the pIC50 is above 8.00. Moreover, the pIC50 with tumor cells [4] (setting [13]) was 7.00 to 8.00. Besides, in the series on tumor cells [4] (setting [14]), the pIC50 is above 8.00. Further, the pIC50 with tumor cells [4] (setting [15]) is above 8.00. Further, the pEC50 in series [5] is below 6.00. Also, in the series on tumor cells [6] (setting [16]), the pEC50 is 7.00 to 8.00. The pEC50 in the series with tumor cells [6] (setting [17]) is 7.00 to 8.00. For the same compound, the pEC50 with tumor cells [6] (setting [18]) was 7.00 to 8.00. Besides, the pEC50 with tumor cells [6] (setting [19]) was 7.00 to 8.00. The pIC50 with HeLa was 7.00 to 8.00.
The compound `CCOc1ccc(F)cc1C(=O)c1oc2ccc(Cl)cc2c1N` [Example 18] returned a melting point of 132 to 134 °C. In addition, in the series with H460, the pIC50 is above 8.00. In addition, the pEC50 in series [1] (setting [7]) is above 8.00. For the same compound, in series [1] (setting [8]), the pEC50 was below 6.00. The pEC50 in the series with tumor cells [2] (setting [9]) is above 8.00. Besides, the pEC50 in the series on tumor cells [2] (setting [10]) is above 8.00. The pEC50 with tumor cells [2] (setting [11]) is above 8.00. The pIC50 in series [3] was above 8.00. Besides, the pIC50 with tumor cells [4] (setting [12]) was above 8.00. For the same compound, the pIC50 in the series with tumor cells [4] (setting [13]) is above 8.00. The pIC50 in the series on tumor cells [4] (setting [14]) was above 8.00. Also, the pIC50 in the series with tumor cells [4] (setting [15]) was above 8.00. The pEC50 in series [5] is below 6.00. Besides, the pEC50 with tumor cells [6] (setting [16]) was above 8.00. Besides, the pEC50 in the series on tumor cells [6] (setting [17]) was above 8.00. Moreover, the pEC50 in the series on tumor cells [6] (setting [18]) was above 8.00. The pEC50 in the series with tumor cells [6] (setting [19]) is above 8.00. In addition, in the series on HeLa, the pIC50 was above 8.00.
